{"source": "patent US20120060834A1", "about": "“PHARMACEUTICAL PREPARATION TO BE ADMINISTERED INTO RESPIRATORY ORGANS FOR TREATING OR PREVENTING INFLAMMATORY RESPIRATORY DISEASES, AND METHOD FOR TREATING OR PREVENTING SUCH DISEASES” (Postech Academy-Industry Foundation, priority 2009, published 2012)", "key": {"[1]": {"system": "asthma animal model exhibiting TH1+TH17 immune responses", "assay": "Therapeutic efficacy of WKYMVm upon intranasal administration in asthma mouse model", "assay_type": "in vivo, BALB/c mice", "protocol": "This sensitization was performed on Day 0, 1, 2 and 7. […] Meanwhile, the mice of the positive control were intraperitoneally administered with the same dose of phosphate-buffered saline (PBS). For a negative control, the sensitization on Day 0, 1, 2 and 7 and the challenge on Day 14, 15, 21, and 22 were conducted in the same manner as in the positive control, except that PBS was used instead of the allergen.\nTwenty four hours after the final administration of the allergen (Day 23), the mice were examined for bronchial hypersensitivity to methacholine. In this context, the mice were placed in a chamber and allowed to inhale PBS for 3 min with the aid of a nebulizer, followed by measuring penh (enhanced pause) values for 3 min by means of non-invasive whole body plethysmography (Allmedicus, Korea). Likewise, the mice were allowed to inhale 6.25, 12.5, 25 and 50 mg/ml methacholine PBS sequentially, after which penh values for each concentration were measured. A mean of the penh values measured for 3 min was used as an index of airway obstruction.\n(§1) Pulmonary inflammation was examined 6 hours (Day 22) and 48 hours (Day 24) after the final administration of the allergen. On Days 22 and 24, after mice were anesthetized by intraperitoneally injecting a mixture of ketamine and xylazine thereto, they were subjected to thoracotomy to expose the trachea into which a catheter was then inserted. After suturing the mice, 1 mL of germ-free PBS was infused twice to wash the airway to give bronchoalveolar lavage fluid (hereinafter referred to as “'BAL fluid”). For analyzing T-lymphocytes in lung tissues, the lung was excised and cells were extracted from local lymph nodes.\n(§2) Following centrifugation of the BAL fluid at 3000 rpm and at 4° C. for 10 min, the cell pellet thus formed was suspended in PBS, and rolled on slide using a cytospin and stained with Diff\n(§3) Quick. More than 300 inflammatory cells were observed under an optical microscope with […] magnification to determine cell counts by cell types, that is, macrophage, lymphocyte, neutrophil, and eosinophil. In the BAL fluid, the cytokines involved in Th1-mediated inflammation, such as gamma interferon, interferon-g-inducible protein 10 (IP-10), and IL-12, the cytokines involved in Th2-mediated inflammation, such as interleukin IL-4 and IL-13, the cytokines involved in Th17-mediated inflammation, such as IL-17, TNF-α and IL-6, and the cytokines involved in Th2- and Th17-mediated inflammation, such as TGF-13, were quantified using ELISA.\n(§4) The excised pulmonary tissue was treated with collagenase type IV (Sigma) to separate cells therefrom. The cells were surface stained with anti-CD3, anti-CD4, and anti-CD8 antibodies (BD Pharmingen), all being conjugated with a fluorescent and the membrane was perforated with Triton, followed by intracellular cytokine staining with anti-IFN-γ, anti-IL-17, anti-IL-10 and anti-IL-4 antibodies. Types of the T lymphocytes introduced into the lung were analyzed using the fluorescence activated cell scanner FACSCalibur (Becton Dickinson).\n(§5) After the cells extracted from the lymph nodes were incubated for 72 hours in PBS containing 100 μg/ml OVA, gamma interferon, IL-17 and IL-4, which are the cytokines involved in Th1-, Th17- and Th2-mediated inflammation, were quantified using ELISA.\nThe assay was performed in the same manner as in the Comparative Example, except that WKYMVm was administered intranasally instead of intraperitoneally. […] The other procedure was performed in the same manner as in the Comparative Example."}, "[2]": {"target": "T1, FPR (formyl peptide receptor) (Homo sapiens, UniProt P21462)", "T1 sequence (P21462 1-350)": "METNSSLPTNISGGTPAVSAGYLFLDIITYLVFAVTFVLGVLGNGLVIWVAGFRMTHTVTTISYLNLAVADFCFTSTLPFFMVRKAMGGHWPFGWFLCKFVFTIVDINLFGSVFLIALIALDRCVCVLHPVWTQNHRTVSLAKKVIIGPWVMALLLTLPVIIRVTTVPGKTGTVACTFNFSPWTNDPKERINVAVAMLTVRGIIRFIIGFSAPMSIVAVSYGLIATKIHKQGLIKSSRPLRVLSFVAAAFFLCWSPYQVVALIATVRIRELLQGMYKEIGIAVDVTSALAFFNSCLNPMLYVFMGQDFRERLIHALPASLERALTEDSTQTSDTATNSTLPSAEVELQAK", "conditions": "cited from earlier work"}, "[3]": {"system": "asthma animal model exhibiting TH1+TH17 immune responses", "assay": "Therapeutic efficacy of WKYMVm upon systemic administration by intraperitoneal injection in asthma mouse model", "assay_type": "in vivo, BALB/c mice", "protocol": "This sensitization was performed on Day 0, 1, 2 and 7. […] Meanwhile, the mice of the positive control were intraperitoneally administered with the same dose of phosphate-buffered saline (PBS). For a negative control, the sensitization on Day 0, 1, 2 and 7 and the challenge on Day 14, 15, 21, and 22 were conducted in the same manner as in the positive control, except that PBS was used instead of the allergen. […]\nas §1, §2, §3, §4, §5"}}}
{"substance": "Trp-Lys-Tyr-Met-Val-D-Met-CONH2 [WKYMVm]", "values": [{"measurement": "suppressive effects on bronchial hypersensitivity and pulmonary inflammation", "setting": "[1]; direct administration via the nasal cavity compared with systemic administration", "result": "higher suppressive effects"}, {"measurement": "inflammatory cell count of BAL fluid", "setting": "[1]; intranasal 200 μg/kg, Day 22, 6 hours after allergen, vs sham (positive control), FIG. 8", "result": "no differences"}, {"measurement": "release of gamma interferon by immune cells separated from local lymph nodes (in vitro)", "setting": "[1]; intranasal 200 μg/kg, Day 22, vs positive control, FIG. 9a", "result": "higher level"}, {"measurement": "gamma interferon-expressing CD4+ T cells from pulmonary tissue (count)", "setting": "[1]; intranasal 200 μg/kg, Day 22, vs positive control, FIG. 9b", "result": "higher"}, {"measurement": "level of gamma interferon in BAL fluid", "setting": "[1]; intranasal 200 μg/kg, Day 22, vs positive control, FIG. 9c", "result": "reduced"}, {"measurement": "IL-17 released by local lymph node immune cells stimulated in vitro with allergen", "setting": "[1]; intranasal 200 μg/kg, Day 22, vs positive control, FIG. 10", "result": "higher amount"}, {"measurement": "IL-17-expressing CD4+ T cells from pulmonary tissues (count)", "setting": "[1]; intranasal 200 μg/kg, Day 22, vs positive control, FIG. 10b", "result": "more numerous"}, {"measurement": "level of IL-17 in BAL fluid", "setting": "[1]; intranasal 200 μg/kg, Day 22, vs positive control, FIG. 10c", "result": "reduced"}, {"measurement": "expression of Th2 cytokines in T cells of pulmonary tissues", "setting": "[1]; intranasal 200 μg/kg, Day 22, vs positive control, FIG. 11a", "result": "reduced"}, {"measurement": "expression level of IL-10 in T cells of pulmonary tissues", "setting": "[1]; intranasal 200 μg/kg, Day 22, vs positive control, FIG. 11b", "result": "increased"}, {"measurement": "release of IP-10 in BAL fluid", "setting": "[1]; intranasal 200 μg/kg, Day 22, vs positive control, FIG. 12a", "result": "reduced"}, {"measurement": "release of IL-12p40 in BAL fluid", "setting": "[1]; intranasal 200 μg/kg, Day 22, vs positive control, FIG. 12b", "result": "reduced"}, {"measurement": "release of TNF-α in BAL fluid", "setting": "[1]; intranasal 200 μg/kg, Day 22, vs positive control, FIG. 12c", "result": "lower levels"}, {"measurement": "level of MCP-1 in BAL fluid", "setting": "[1]; intranasal 200 μg/kg, Day 22, vs positive control, FIG. 12e", "result": "lower levels"}, {"measurement": "level of MIP-1a in BAL fluid", "setting": "[1]; intranasal 200 μg/kg, Day 22, vs positive control, FIG. 12f", "result": "lower levels"}, {"measurement": "release of IL-1β in BAL fluid", "setting": "[1]; intranasal 200 μg/kg, Day 22, vs positive control, FIG. 12d", "result": "lower levels"}, {"measurement": "release of IL-17 into BAL fluid", "setting": "[1]; intranasal 200 μg/kg, Day 24, vs positive control, FIG. 15", "result": "increased"}, {"measurement": "release of TGF-β from inflammatory cells (BAL fluid)", "setting": "[1]; intranasal 200 μg/kg, Day 24, vs positive control, FIG. 15b", "result": "significantly reduced"}, {"measurement": "level of IL-12p40 in BAL fluid", "setting": "[1]; intranasal 200 μg/kg, Day 24, vs positive control, FIG. 16a", "result": "higher levels"}, {"measurement": "level of IP-10 in BAL fluid", "setting": "[1]; intranasal 200 μg/kg, Day 24, vs positive control, FIG. 16b", "result": "higher levels"}, {"measurement": "binding to FPR", "setting": "[2]", "result": "known to bind"}, {"measurement": "inflammatory cell count in BAL fluid", "setting": "[3]; i.p. 4 mg/kg, Day 22, 6 hours after final allergen, vs sham (positive control), FIG. 2", "result": "increase"}, {"measurement": "release of gamma interferon by inflammatory cells separated from pulmonary tissue", "setting": "[3]; i.p. 4 mg/kg, Day 22, FIG. 3a", "result": "increased"}, {"measurement": "level of IP-10 in BAL fluid", "setting": "[3]; i.p. 4 mg/kg, Day 22, FIG. 3b", "result": "increased levels"}, {"measurement": "level of IL-12p40 in BAL fluid", "setting": "[3]; i.p. 4 mg/kg, Day 22, FIG. 3c", "result": "increased levels"}, {"measurement": "number of IL-17-expressing CD4+ T cells from pulmonary tissues", "setting": "[3]; i.p. 4 mg/kg, Day 22, FIG. 4a", "result": "increase in number"}, {"measurement": "level of IL-17 released to BAL fluid", "setting": "[3]; i.p. 4 mg/kg, Day 22, FIG. 4b", "result": "increase"}, {"measurement": "level of IL-6 in BAL fluid", "setting": "[3]; i.p. 4 mg/kg, Day 22, FIG. 5a", "result": "increased levels"}, {"measurement": "level of TNF-α in BAL fluid", "setting": "[3]; i.p. 4 mg/kg, Day 22, FIG. 5b", "result": "increased levels"}, {"measurement": "inflammatory cell count in BAL", "setting": "[3]; i.p. 4 mg/kg, Day 24, 48 hours after final allergen, vs sham, FIG. 6", "result": "there was a difference"}, {"measurement": "level of IL-12p40 (ELISA)", "setting": "[3]; i.p. 4 mg/kg, Day 24, vs sham, FIG. 7a", "result": "no significant differences"}, {"measurement": "level of TGF-β (ELISA)", "setting": "[3]; i.p. 4 mg/kg, Day 24, vs sham, FIG. 7b", "result": "no significant differences"}, {"measurement": "pulmonary/respiratory inflammation (overall conclusion)", "setting": "[3]; systemic (intraperitoneal) administration", "result": "did not ameliorate"}]}
